In the NIST ThermoML archive (doi:10.1021/je0502647):
± gives the expanded uncertainty stated by the source.

Assay: activity coefficient (dimensionless); of the first substance listed, at infinite dilution; xn = mol fraction of the nth substance listed
Details: Liquid, gas stripping method, x1 = 0

Compound	activity coefficient (250 K)	activity coefficient (270.01 K)	activity coefficient (289.99 K)	activity coefficient (310 K)	activity coefficient (329.99 K)	activity coefficient (270 K)	activity coefficient (249.94 K)	activity coefficient (270.06 K)	activity coefficient (309.98 K)	activity coefficient (249.98 K)
C=CC=C [1,3-butadiene] + C=CCO	4.12 ± 0.12	4.06 ± 0.12	4.02 ± 0.12	3.89 ± 0.12	3.59 ± 0.11	–	–	–	–	–
C/C=C/C [(E)-2-butene] + C=CCO	6.23 ± 0.19	–	5.67 ± 0.17	5.38 ± 0.16	4.91 ± 0.15	5.85 ± 0.18	–	–	–	–
CCCl [chloroethane] + C=CCO	–	–	2.99 ± 0.09	–	2.69 ± 0.08	–	3.09 ± 0.09	3.07 ± 0.09	2.87 ± 0.09	–
C/C=C\C [(Z)-2-butene] + C=CCO	–	–	5.06 ± 0.15	–	4.57 ± 0.14	–	5.53 ± 0.17	5.28 ± 0.16	4.85 ± 0.15	–
COC [dimethyl ether] + C=CCO	–	–	1.2 ± 0.04	–	1.16 ± 0.04	–	1.23 ± 0.04	1.22 ± 0.04	1.2 ± 0.04	–
CC(F)F [1,1-difluoroethane] + C=CCO	–	–	4.68 ± 0.14	–	4.02 ± 0.12	–	5.09 ± 0.15	4.94 ± 0.15	4.39 ± 0.13	–
CC(C)C [2-methylpropane] + C=CCO	–	9.51 ± 0.29	8.83 ± 0.26	8.11 ± 0.24	7.14 ± 0.21	–	10.5 ± 0.3	–	–	–
CCCC [butane] + C=CCO	–	8.84 ± 0.27	8.2 ± 0.25	7.58 ± 0.23	6.79 ± 0.2	–	–	–	–	9.71 ± 0.29
C=CCC [1-butene] + C=CCO	–	5.85 ± 0.18	5.62 ± 0.17	5.35 ± 0.16	5.04 ± 0.15	–	6.08 ± 0.18	–	–	–
